From patent US20240350510A1, “METHODS AND COMPOSITIONS FOR REDUCING TOLERANCE TO OPIOID […] IBOGAINE AND DERIVATIVES THEREOF” (DemeRx, Inc., priority 2014, published 2024)

Test: Effect of ibogaine on QT interval in treated patients
Type: in vivo, human
Conditions: stated in words only, no values
From the text: A prolonged QT interval is a marker of potential Torsades de Pointes, a serious arrhythmia that can result in death. For reasons that are not apparent, this prolongation increases in opioid addicted patients as compared to healthy individuals. […] It is expected that other compounds that share ibogaine's core structure will have a similar prolongation effect on QT interval. See, U.S. Provisional Patent Application No. 61/945,746 filed Feb. 27, 2014 entitled METHOD FOR ACUTE AND LONG-TERM TREATMENT OF DRUG ADDICTION, which application is incorporated by reference in its entirety.
The effect of ibogaine, ibogaine derivative, or a pharmaceutically acceptable salt and/or solvate thereof on QT interval is evaluated in substance-dependent participants in a randomized, placebo-controlled, double-blind trial. Patients are administered 60 mg or 120 mg of the compound and QT interval is measured.

CCC1CC2CC3c4[nH]c5ccc(OC)cc5c4CCN(C2)C13 (stereo not shown) [ibogaine]
prolongation of the treated patient's QT interval: dose dependent prolongation
